Experimental data published in patent US5276205A, “Insecticides” (ICI Americas Inc., priority 1989, dated 1994).

Key:
Format in all cases: in vivo
[1] = system: two-spotted mite [Tetranychus urticae (Koch)], adults; assay: Two-spotted mite acaricidal test, adults (2SM-A); settings: percent in dip solution, mortality after 5-7 days, max. 0.05%
Description: (§1) Acaricidal Evaluation Test
(§2) The two-spotted mite (2SM) [Tetranychus urticae (Koch)] was employed in tests for miticides. The test procedure was as follows:
(§3) Pinto bean plants (Phaseolus sp.), approximately 10 cm tall, were transplanted into sandy loam soil in small cups and thoroughly infested with two-spotted mites of mixed ages and sexes. Twenty-four hours later the infested plants were inverted and dipped for 2-3 seconds in 50-50 acetone-water solutions of the test compound. Treated plants were held in the greenhouse, and 5-7 days later mortality was determined for both adult mites and the nymphs hatching from eggs which were on the plants at the time of treatment. Test concentrations ranged from 0.05% downward. The LC-50 value is expressed below in Table 2 under the headings "2SM-A" (i.e., adults) and "2SM-E" (i.e. eggs) in terms of percent concentration of the test compound in the solution.

[2] = system: Tobacco Budworm [Heliothis virescens (Fabricius)], eggs; assay: Tobacco budworm egg test (TBW-E); settings: 2-day old eggs dipped; percent in acetone solution; max. 0.1%
Description: The compounds in Table 1 above were tested for insecticidal activity using the following testing procedures.
Tobacco Budworm [Heliothis virescens (Fabricius)]
Eggs: Paper towel patches of 2-day old eggs of the tobacco budworm were dipped in acetone solutions of the test compound and placed in petri dishes containing a portion of larval rearing medium. […] Test concentrations ranged from 0.1% downward. The LC-50 value is expressed below in Table 2 under the heading "TBW-E" in terms of percent of the test compound in the solution.

[3] = system: Housefly [Musca domestica]; assay: Housefly insecticidal test (HF); settings: μg of test compound per 25 female flies; mortality after 48 hours; max. test level 100 μg
Description: (§4) The compounds in Table 1 above were tested for insecticidal activity using the following testing procedures. LC50 values, based on the results of these tests and calculated according to dosage-mortality curves, are expressed in Table 2.
Housefly [Musca domestica]
The test compound was diluted in acetone and aliquots pipetted onto the bottom of aluminum dishes. To ensure even spreading of the chemical on the bottom of the dishes, 1 ml of acetone containing 0.01% peanut oil was also added to each dish. After all solvents had evaporated, the dishes were placed in circular cardboard cages containing 25 female houseflies, 1-2 days old. The cages were covered on the bottom with cellophane and on the top with tulle netting, and each contained a sugar-water saturated cotton plug for maintenance of the flies. Mortality was recorded after 48 hours. Test levels ranged from 100 μg/25 female houseflies downward. The LC-50 value is expressed below in Table 2 under the heading "HF", in terms of μg of the test compound per 25 female flies.

[4] = system: two-spotted mite [Tetranychus urticae (Koch)], eggs; assay: Two-spotted mite acaricidal test, eggs (2SM-E); settings: percent in dip solution, mortality after 5-7 days, max. 0.05%
Description: as §1, §2, §3

[5] = system: Cabbage Looper [Trichoplusia ni (Hubner)]; assay: Cabbage looper insecticidal test (CL); settings: second-instar larvae; percent in solution; mortality 3-5 days later; max. 0.1%
Description: as §4
Cabbage Looper [Trichoplusia ni (Hubner)]
The test compound was diluted in a 50-50 acetone-water solution. Cotyledons of hyzini squash (Calabacita abobrinha), approximately 1×1.5 inches, were immersed in the test solutions for 2-3 seconds and placed on a wire screen to dry. The dried leaves were placed in petri dishes containing a moistened piece of filter paper and infested with 5 second-instar cabbage looper larvae. The dishes were placed in a high humidity chamber. Mortality of the larvae was recorded 3-5 days later. Test concentrations ranged from 0.1% downward. The LC-50 value is expressed below in Table 2 under the heading "CL" in terms of percent of the test compound in solution.

[6] = system: Black Bean Aphid [Aphis fabae (Scop.)]; assay: Black bean aphid insecticidal test (BBA); settings: percent in sprayed solution; mortality after 48 hours; max. 0.05%
Description: as §4
Black Bean Aphid [Aphis fabae (Scop.)]
Nasturtium plants (Tropaeolum sp.) approximately 5 cm tall, were transplanted into sandy loam soil in small cups and infested with 25-50 black bean aphids of mixed ages. Twenty-four hours later they were sprayed to the point of runoff with 50-50 acetone-water solutions of the test compound. Treated plants were held in the greenhouse and mortality was recorded after 48 hours. Test concentrations ranged from 0.05% downward. The LC-50 value is expressed below in Table 2 under the heading "BBA" in terms of percent of the test compound in the sprayed solution.

[7] = system: Western Spotted Cucumber Beetle Larvae [Diabrotica undecimpunctata (Mannherheim)]; assay: Western spotted cucumber beetle larvae soil test (Diab); settings: ppm in soil; max. 25 ppm
Description: as §4
Western Spotted Cucumber Beetle Larvae [Diabrotica undecimpunctata (Mannherheim)]
Ten grams of moist potting soil was placed in a plastic cup. The test compound was dissolved in acetone. A 0.05 ml aliquot of the test sample, diluted to the desired concentration, was added to the soil. The cup was capped and the soil was mixed on a vortex mixer for approximately 15 seconds. An indentation was made on the surface of the soil and approximately 50 Diabrotica eggs were added. The eggs were covered with soil and maintained at room temperature (approximately 70° F. or 21° C.). Four days later a section of Romaine lettuce (Latuca sativa) leaf was placed in the treated cups. One week later the cups were examined for live larvae. Test concentrations ranged from 25 ppm downward. The LC-50 value is expressed below in Table 2 under the heading "Diab" in terms of ppm of the test compound in the soil.

Structure (SMILES): Cc1ccc(CC(O)(CCc2cccc(Oc3ccccc3)c2)C(C)C)cc1 (centres unmarked) [Compound 2]
- LC50 2-SM A [1]: > 0.05%
- LC50 TBW E [2]: > 0.1%
- LC50 HF [3]: > 100 µg
- LC50 2-SM E [4]: > 0.05%
- LC50 CL [5]: 0.016%
- LC50 BBA [6]: 0.05%
- LC50 Diab. [7]: > 25 ppm (soil)

Structure (SMILES): CC(C)C(O)(CCc1cccc(Oc2ccccc2)c1)Cc1ccc(Cl)cc1 (centres unmarked) [Compound 1, 1-(4-chlorophenyl)-2-isopropyl-4-(3-phenoxyphenyl)-2-butanol]
- LC50 2-SM A [1]: > 0.05%
- LC50 TBW E [2]: > 0.1%
- LC50 HF [3]: > 100 µg
- LC50 2-SM E [4]: > 0.05%
- LC50 CL [5]: 0.015%
- LC50 BBA [6]: 0.05%
- LC50 Diab. [7]: > 25 ppm (soil)

Structure (SMILES): OC(CCc1cccc(Oc2ccccc2)c1)(Cc1ccc(Cl)cc1)C1CC1 (centres unmarked) [Compound 3]
- LC50 2-SM A [1]: > 0.05%
- LC50 TBW E [2]: > 0.1%
- LC50 HF [3]: > 100 µg
- LC50 2-SM E [4]: > 0.05%
- LC50 CL [5]: 0.025%
- LC50 BBA [6]: > 0.05%
- LC50 Diab. [7]: > 25 ppm (soil)

Structure (SMILES): OC(CCc1cccc(Oc2ccccc2)c1)(Cc1cccc(Cl)c1)C1CC1 (centres unmarked) [Compound 4]
- LC50 2-SM A [1]: > 0.05%
- LC50 TBW E [2]: > 0.1%
- LC50 HF [3]: > 100 µg
- LC50 2-SM E [4]: > 0.05%
- LC50 CL [5]: 0.035%
- LC50 BBA [6]: > 0.05%
- LC50 Diab. [7]: > 25 ppm (soil)

Structure (SMILES): CC(C)C(O)(CCc1cccc(Oc2ccccc2)c1)Cc1cccc(Cl)c1 (centres unmarked) [Compound 5]
- LC50 2-SM A [1]: > 0.05%
- LC50 TBW E [2]: > 0.1%
- LC50 HF [3]: 84 µg
- LC50 2-SM E [4]: > 0.05%
- LC50 CL [5]: 0.008%
- LC50 BBA [6]: 0.05%
- LC50 Diab. [7]: > 25 ppm (soil)
